Assay: in vitro
Conditions: human, hek293t cells

Structure (SMILES)	viability at 48 h, 25 µM [%]
Cc1cccc(NC(=O)C(C#N)=Cc2cc(C)c(C)cc2C)c1 [8-C18, 2-cyano-N-(3-methylphenyl)-3-(2,4,5-trimethylphenyl)prop-2-enamide]	92.9
CC1CCCC(NC(=O)C(C#N)=Cc2ccccc2)C1C (stereo not drawn) [8-C19, 2-cyano-N-(2,3-dimethylcyclohexyl)-3-phenylprop-2-enamide]	27.3
N#CC(=CN1CCN(c2ccccc2)CC1)C(=O)Nc1ccc(F)cc1 [8-C20, 2-cyano-N-(4-fluorophenyl)-3-(4-phenylpiperazin-1-yl)prop-2-enamide]	72.5
COc1ccc(C=C(C#N)C(=O)Nc2ccccc2Cl)cc1O [8-C21, N-(2-chlorophenyl)-2-cyano-3-(3-hydroxy-4-methoxyphenyl)prop-2-enamide]	82.8
N#CC(=Cc1cc2cc(F)ccc2o1)C(=O)NC(N)=O [8-C22, {2-cyano-2-[(5-fluoro-1-benzofuran-2-yl)methylidene]acetyl}urea]	79.1
Cn1ccnc1Sc1ccc(C=C(C#N)C(N)=O)cc1[N+](=O)[O-] [8-D03, 2-cyano-3-{4-[(1-methyl-1H-imidazol-2-yl)sulfanyl]-3-nitrophenyl}prop-2-enamide]	135
N#CC(=Cc1ccc(F)c([N+](=O)[O-])c1)C(=O)Nc1ccc(F)cc1 [8-D04, 2-cyano-3-(4-fluoro-3-nitrophenyl)-N-(4-fluorophenyl)prop-2-enamide]	1.12
C=CCNC(=O)C(C#N)=Cc1cccc(C)c1 [8-D05, 2-cyano-3-(3-methylphenyl)-N-(prop-2-en-1-yl)prop-2-enamide]	102
Cc1ccc(NC(=O)C(C#N)=Cc2cccc(Cl)c2Cl)cc1 [8-D06, 2-cyano-3-(2,3-dichlorophenyl)-N-(4-methylphenyl)prop-2-enamide]	69.5
N#CC(=Cc1cccc(Oc2ccccc2)c1)C(=O)NC(N)=O [8-D07, {2-cyano-2-[(3-phenoxyphenyl)methylidene]acetyl}urea]	134
N#CC(=Cc1ccc([N+](=O)[O-])c(Cl)c1)C(=O)NCc1ccccc1 [8-D08, N-benzyl-3-(3-chloro-4-nitrophenyl)-2-cyanoprop-2-enamide]	1.37
Cc1ccc(NC(=O)C(C#N)=Cc2ccc(C)s2)c(C)c1 [8-D09, 2-cyano-N-(2,4-dimethylphenyl)-3-(5-methylthiophen-2-yl)prop-2-enamide]	99.2
Cc1ccccc1NC(=O)C(C#N)=Cc1cccnc1 [8-D10, 2-cyano-N-(2-methylphenyl)-3-(pyridin-3-yl)prop-2-enamide]	95.5
COc1ccc(NC(=O)C(C#N)=Cc2ccc(-c3ccccc3)cc2)cc1 [8-D11, 3-{[1,1'-biphenyl]-4-yl}-2-cyano-N-(4-methoxyphenyl)prop-2-enamide]	103
CC(=O)Nc1ccc(C=C(C#N)C(=O)NCc2ccccc2)cc1 [8-D12, N-benzyl-2-cyano-3-(4-acetamidophenyl)prop-2-enamide]	84.4
CC1=CSC(=C(C#N)C(=O)NCc2ccco2)N1c1ccccc1 [8-D13, 2-cyano-N-[(furan-2-yl)methyl]-2-(4-methyl-3-phenyl-2,3-dihydro-1,3-thiazol-2-ylidene)acetamide]	114
N#CC(=Cc1c2ccccc2cc2ccccc12)C(=O)NC1CCCCC1 [8-D14, 3-(anthracen-9-yl)-2-cyano-N-cyclohexylprop-2-enamide]	94.6
Cc1ccc(NC(=O)C(C#N)=Cc2cccs2)c(C)c1 [8-D15, 2-cyano-N-(2,4-dimethylphenyl)-3-(thiophen-2-yl)prop-2-enamide]	101

Structure (SMILES)	viability at 48 h, 25 µM [%]
Cc1[nH]c2ccccc2c1C=C(C#N)C(=O)NCc1ccccc1 [8-D16, N-benzyl-2-cyano-3-(2-methyl-1H-indol-3-yl)prop-2-enamide]	96.6
N#CC(=CC(Cl)=Cc1ccccc1)C(=O)NC1CCCCC1 [8-D17, 4-chloro-2-cyano-N-cyclohexyl-5-phenylpenta-2,4-dienamide]	7.44
N#CC(=Cc1c(F)cccc1F)C(=O)NCCc1ccccc1 [8-D18, 2-cyano-3-(2,6-difluorophenyl)-N-(2-phenylethyl)prop-2-enamide]	47.1
Cc1ccccc1NC(=O)C(C#N)=Cc1cc(C)n(CC(C)C)c1C [8-D19, 2-cyano-3-[2,5-dimethyl-1-(2-methylpropyl)-1H-pyrrol-3-yl]-N-(2-methylphenyl)prop-2-enamide]	118
N#CC(=Cc1cccs1)C(=O)Nc1cccc2ncccc12 [8-D20, 2-cyano-N-(quinolin-5-yl)-3-(thiophen-2-yl)prop-2-enamide]	84.3
Cc1ccc(C=C(C#N)C(=O)NC(N)=O)o1 [8-D21, {2-cyano-2-[(5-methylfuran-2-yl)methylidene]acetyl}urea]	101
Cc1ccsc1C=C(C#N)C(=O)Nc1c(Cl)cccc1Cl [8-D22, 2-cyano-N-(2,6-dichlorophenyl)-3-(3-methylthiophen-2-yl)prop-2-enamide]	78.5
N#CC(=Cc1ccc(OC(F)F)cc1)C(=O)N1CCCc2ccccc21 [8-E03, 3-[4-(difluoromethoxy)phenyl]-2-(1,2,3,4-tetrahydroquinoline-1-carbonyl)prop-2-enenitrile]	64.6
Cc1ccc(C=C(C#N)C(=O)Nc2ccc(C(=O)O)cc2)s1 [8-E04, 4-[2-cyano-3-(5-methylthiophen-2-yl)prop-2-enamido]benzoic acid]	91.5
CCNC(=O)C(C#N)=Cc1ccc(OC(F)F)cc1 [8-E05, 2-cyano-3-[4-(difluoromethoxy)phenyl]-N-ethylprop-2-enamide]	81.4
CN(C)c1ccc(C=C(C#N)C(=O)Nc2nccs2)cc1 [8-E06, 2-cyano-3-[4-(dimethylamino)phenyl]-N-(1,3-thiazol-2-yl)prop-2-enamide]	75.1
CC1CCCCC1NC(=O)C(C#N)=Cc1cccc(O)c1 (stereo not drawn) [8-E07, 2-cyano-3-(3-hydroxyphenyl)-N-(2-methylcyclohexyl)prop-2-enamide]	45.1
Cc1n[nH]c(C)c1C=C(C#N)C(=O)Nc1ccc(SC(F)F)cc1 [8-E08, 2-cyano-N-{4-[(difluoromethyl)sulfanyl]phenyl}-3-(3,5-dimethyl-1H-pyrazol-4-yl)prop-2-enamide]	78.2
C=CCNC(=O)C(C#N)=Cc1ccccc1[N+](=O)[O-] [8-E09, 2-cyano-3-(2-nitrophenyl)-N-(prop-2-en-1-yl)prop-2-enamide]	109
N#CC(=Cc1cc(F)ccc1F)C(=O)Nc1ccc(F)cc1 [8-E10, 2-cyano-3-(2,5-difluorophenyl)-N-(4-fluorophenyl)prop-2-enamide]	87.5
COc1ccccc1NC(=O)C(C#N)=Cc1ccccc1F [8-E11, 2-cyano-3-(2-fluorophenyl)-N-(2-methoxyphenyl)prop-2-enamide]	67.4
Cc1ccc(C=C(C#N)C(=O)NC2CCCC2)cc1C [8-E12, 2-cyano-N-cyclopentyl-3-(3,4-dimethylphenyl)prop-2-enamide]	54.9
Cc1cc(C)c(NC(=O)C(C#N)=Cc2ccccc2C)c(C)c1 [8-E13, 2-cyano-3-(2-methylphenyl)-N-(2,4,6-trimethylphenyl)prop-2-enamide]	37.8

— publication PMC11995724, “Antibiotic target discovery by integrated phenotypic and activity-based profiling of electrophilic fragments” (Cell chemical biology, 2025)
